{
  "source": "patent US8809304B2",
  "about": "“Amine compound and use thereof for medical purposes” (Mitsubishi Tanabe Pharma Corporation, priority 2005, dated 2014)",
  "note": "Counter-ions that a name gives are not always drawn.",
  "data": [
    {"tested_on": "peripheral blood lymphocyte count", "test": "Evaluation of peripheral blood lymphocyte count-decreasing effect in mice", "type": "in vivo", "settings": "male BALB/cAnNCrj mice, intraperitoneally administered, 24 hr after administration", "units": {"mouse peripheral blood lymphocyte count-decreasing effect, ED50 value (dose necessary for 50% reduction of the lymphocyte count of vehicle group as 100%)": "mg/kg body weight"}, "values": [
      {"smiles": "CCCCCCCOc1ccc(CCC(N)(CO)CO)cc1C.Cl", "note": "[comparison compound 1-7, 2-amino-2-[2-(4-heptyloxy-3-methylphenyl)ethyl]propane-1,3-diol Hydrochloride, reference compound]", "mouse peripheral blood lymphocyte count-decreasing effect, ED50 value (dose necessary for 50% reduction of the lymphocyte count of vehicle group as 100%)": 0.64},
      {"smiles": "CCCCCCCOc1ccc(CCC(N)(CO)CO)cc1C(F)(F)F.Cl", "note": "[compound 1-3, 2-amino-2-[2-(4-heptyloxy-3-trifluoromethylphenyl)ethyl]propane-1,3-diol Hydrochloride]", "mouse peripheral blood lymphocyte count-decreasing effect, ED50 value (dose necessary for 50% reduction of the lymphocyte count of vehicle group as 100%)": 0.04},
      {"smiles": "CCCCCCCOc1ccc(CCC(C)(N)CO)cc1C(F)(F)F.Cl", "note": "(stereo not drawn) [compound 13-6, 2-amino-4-(4-heptyloxy-3-trifluoromethylphenyl)-2-methylbutanol Hydrochloride]", "mouse peripheral blood lymphocyte count-decreasing effect, ED50 value (dose necessary for 50% reduction of the lymphocyte count of vehicle group as 100%)": 0.02},
      {"smiles": "CCCCCCCOc1ccc(CC[C@@](C)(N)CO)cc1C(F)(F)F.Cl", "note": "[compound 15-3, (R)-2-amino-4-(4-heptyloxy-3-trifluoromethylphenyl)-2-methylbutanol Hydrochloride]", "mouse peripheral blood lymphocyte count-decreasing effect, ED50 value (dose necessary for 50% reduction of the lymphocyte count of vehicle group as 100%)": 0.02},
      {"smiles": "CCCCCCCOc1ccc(/C=C/C(N)(CO)CO)cc1C(F)(F)F", "note": "[compound 28-6, (E)-2-amino-2-[2-(4-heptyloxy-3-trifluoromethylphenyl)vinyl]propane-1,3-diol Hydrochloride]", "mouse peripheral blood lymphocyte count-decreasing effect, ED50 value (dose necessary for 50% reduction of the lymphocyte count of vehicle group as 100%)": 0.03}
    ]},
    {"tested_on": "not listed separately", "test": "Effect on heart rate in rat telemetry", "type": "in vivo, Sprague-Dawley (IGS) rats", "settings": "orally administered, up to the dose of 30 mg/kg body weight, measured from 24 hr before to 72 hr after administration", "procedure": "Effect on Heart Rate in Rat Telemetry\nMale Sprague-Dawley (IGS) rats were anesthetized by intraperitoneal administration of Nembutal (manufactured by DAINIPPON PHARMACEUTICAL CO., LTD.), a pressure sensor connected to a telemetry transmitter (TL11M2-C50-PTX, manufactured by Data Sciences International) was inserted into the abdominal artery, and the transmitter was subcutaneously dwelled in the abdomen. The data of blood pressure and heart rate were recorded by an analysis soft (Dataquest A.R.T., Data Science) via a receiver (RPC-1, manufactured by Data Sciences International). When 10 days to 2 weeks elapsed from the surgery, recovery of heart rate circadian rhythm was confirmed, and the rats were subjected to the experiment. The compound of the present invention was suspended in 0.5% hydroxypropylmethylcellulose (manufactured by Shin-Etsu Chemical Co., Ltd.) and orally administered. The heart rate was measured from 24 hr before the administration to 72 hr after the administration.", "values": [
      {"smiles": "CCCCCCCOc1ccc(CCC(N)(CO)CO)cc1C(F)(F)F.Cl", "note": "[compound 1-3, 2-amino-2-[2-(4-heptyloxy-3-trifluoromethylphenyl)ethyl]propane-1,3-diol Hydrochloride]", "effect on heart rate of the rat": "did not affect the heart rate"}
    ]}
  ]
}
